# Test results published in patent publication US12552752B2, “Atropisomers of pyridazinone derivatives as herbicides” (FMC Corporation, priority 2020, dated 2026).
# Tests used:
# Type in all cases: in vivo
# [1] = tested on: ryegrass, Italian (RGI, Lolium multiflorum); assay: Test A preemergence, Italian ryegrass; settings: PRE, 0 to 100 scale, approximately 10 d
# From the text: (§1) Seeds of plant species selected from barnyardgrass (BYG, Echinochloa crus-galli), kochia (KOC, Kochia scoparia), ragweed (common ragweed, Ambrosia elatior), ryegrass, Italian (RGI, Lolium multiflorum), foxtail, giant (FTI, Setaria faberii), foxtail, green (Setaria viridis) and pigweed (PWR, Amaranthus retroflexus) were planted into a blend of loam soil and sand and treated preemergence with a directed soil spray using test chemicals formulated in a non-phytotoxic solvent mixture which included a surfactant. At the same time, plants selected from these weed species and also wheat (WWT, Triticum aestivum), corn (CPI, Zea mays), blackgrass (BKG, Alopecurus myosuroides) and galium (GAL, catchweed bedstraw, Galium aparine) were planted in pots containing the same blend of loam soil and sand and treated with postemergence applications of test chemicals formulated in the same manner Plants ranged in height from 2 to 10 cm and were in the one- to two-leaf stage for the postemergence treatment. Treated plants and untreated controls were maintained in a greenhouse for approximately 10 d, after which time all treated plants were compared to untreated controls and visually evaluated for injury. Plant response ratings, summarized in Tables 1-4, are based on a 0 to 100 scale where 0 is no effect and 100 is complete control. A dash (−) response means no test result. The ratings are followed by a letter representing the symptomology where S is Albinism, C is Chlorosis, G is Growth Inhibition and E is Emergence.
# [2] = tested on: foxtail, giant (FTI, Setaria faberii); assay: Test A postemergence, giant foxtail; settings: POST, 0 to 100 scale, approximately 10 d
# From the text: as §1
# [3] = tested on: pigweed (PWR, Amaranthus retroflexus); assay: Test A postemergence, pigweed; settings: POST, 0 to 100 scale, approximately 10 d
# From the text: as §1
# corn (CPI, Zea mays) = assay: Test A postemergence, corn; settings: POST, 0 to 100 scale, approximately 10 d
# From the text: as §1
# [4] = tested on: kochia (KOC, Kochia scoparia); assay: Test A postemergence, kochia; settings: POST, 0 to 100 scale, approximately 10 d
# From the text: as §1
# [5] = tested on: barnyardgrass (BYG, Echinochloa crus-galli); assay: Test A postemergence, barnyardgrass; settings: POST, 0 to 100 scale, approximately 10 d
# From the text: as §1
# [6] = tested on: blackgrass (BKG, Alopecurus myosuroides); assay: Test A postemergence, blackgrass; settings: POST, 0 to 100 scale, approximately 10 d
# From the text: as §1
# [7] = tested on: barnyardgrass (BYG, Echinochloa crus-galli); assay: Test A preemergence, barnyardgrass; settings: PRE, 0 to 100 scale, approximately 10 d
# From the text: as §1
# [8] = tested on: kochia (KOC, Kochia scoparia); assay: Test A preemergence, kochia; settings: PRE, 0 to 100 scale, approximately 10 d
# From the text: as §1
# [9] = tested on: galium (GAL, catchweed bedstraw, Galium aparine); assay: Test A postemergence, galium; settings: POST, 0 to 100 scale, approximately 10 d
# From the text: as §1
# [10] = tested on: ryegrass, Italian (RGI, Lolium multiflorum); assay: Test A postemergence, Italian ryegrass; settings: POST, 0 to 100 scale, approximately 10 d
# From the text: as §1
# [11] = tested on: foxtail, giant (FTI, Setaria faberii); assay: Test A preemergence, giant foxtail; settings: PRE, 0 to 100 scale, approximately 10 d
# From the text: as §1
# [12] = tested on: pigweed (PWR, Amaranthus retroflexus); assay: Test A preemergence, pigweed; settings: PRE, 0 to 100 scale, approximately 10 d
# From the text: as §1
# [13] = tested on: wheat (WWT, Triticum aestivum); assay: Test A postemergence, wheat; settings: POST, 0 to 100 scale, approximately 10 d
# From the text: as §1
# [14] = tested on: ragweed (common ragweed, Ambrosia elatior); assay: Test A postemergence, ragweed; settings: POST, 0 to 100 scale, approximately 10 d
# From the text: as §1
# [15] = 31 g ai/ha, listed as drawing 30
# [16] = 125 g ai/ha, listed as drawing 30
# [17] = 125 g ai/ha, listed as drawing 28
# [18] = 31 g ai/ha, listed as drawing 28
structure (smiles),measurement,setting,value
CCC(=O)Oc1c(Cl)nn(C)c(=O)c1-c1c(C)ccc2ccc(C)cc12 (racemic) [4 (Enantiomer 4B)],Plant response rating RGI,[1]; [15],80 S
same,Plant response rating RGI,[1]; [16],90 S
same,Plant response rating FTI,[2]; [15],80 S
same,Plant response rating FTI,[2]; [16],90 S
same,Plant response rating PWR,[3]; [15],100 C 100 C 100 C 100 C
same,Plant response rating PWR,[3]; [16],100 C 100 C 100 C 100 C
same,Plant response rating CPI,"corn (CPI, Zea mays); [15]",10 G
same,Plant response rating CPI,"corn (CPI, Zea mays); [16]",10 S
same,Plant response rating KOC,[4]; [16],50 S
same,Plant response rating BYG,[5]; [15],70 S
same,Plant response rating BYG,[5]; [16],90 S
same,Plant response rating BKG,[6]; [15],20 S
same,Plant response rating BKG,[6]; [16],70 S
same,Plant response rating BYG,[7]; [15],100 C
same,Plant response rating BYG,[7]; [16],100 C
same,Plant response rating KOC,[8]; [16],70 S
same,Plant response rating GAL,[9]; [15],100 C 100 C
same,Plant response rating GAL,[9]; [16],100 C 100 C
same,Plant response rating RGI,[10]; [15],80 C
same,Plant response rating RGI,[10]; [16],90 C
same,Plant response rating FTI,[11]; [15],100 C
same,Plant response rating FTI,[11]; [16],100 C
same,Plant response rating PWR,[12]; [15],100 C 100 C 100 C 100 C
same,Plant response rating PWR,[12]; [16],100 C 100 C 100 C 100 C
same,Plant response rating WWT,[13]; [15],0
same,Plant response rating WWT,[13]; [16],20 S
same,Plant response rating RWC,[14]; [15],90 S
same,Plant response rating RWC,[14]; [16],100 C
Cc1ccc2ccccc2c1-c1c(O)c(Cl)nn(C)c1=O (racemic) [3 (Enantiomer 3B)],Plant response rating RGI,[1]; 1000 g ai/ha,100 S
same,Plant response rating FTI,[2]; [17],90 S
same,Plant response rating FTI,[2]; 1000 g ai/ha,100 S
same,Plant response rating PWR,[3]; [18],100 C
same,Plant response rating PWR,[3]; 1000 g ai/ha,100 C
same,Plant response rating CPI,"corn (CPI, Zea mays); 1000 g ai/ha",50 S
same,Plant response rating KOC,[4]; 1000 g ai/ha,100 C
same,Plant response rating BYG,[5]; 1000 g ai/ha,90 S
same,Plant response rating BKG,[6]; [18],0
same,Plant response rating BKG,[6]; 1000 g ai/ha,80 S
same,Plant response rating BYG,[7]; [18],80 S
same,Plant response rating BYG,[7]; 1000 g ai/ha,100 C
same,Plant response rating KOC,[8]; [18],10 S
same,Plant response rating KOC,[8]; 1000 g ai/ha,100 C
same,Plant response rating GAL,[9]; [18],100 C 100 C 100 C 100 C 100 C
same,Plant response rating GAL,[9]; [17],100 C 100 C 100 C 100 C 100 C
same,Plant response rating GAL,[9]; 1000 g ai/ha,100 C 100 C 100 C 100 C 100 C
same,Plant response rating RGI,[10]; [17],100 S
same,Plant response rating RGI,[10]; 1000 g ai/ha,100 S
same,Plant response rating FTI,[11]; [17],100 C
same,Plant response rating FTI,[11]; 1000 g ai/ha,100 C
same,Plant response rating PWR,[12]; [18],90 C
same,Plant response rating PWR,[12]; 1000 g ai/ha,100 C
same,Plant response rating WWT,[13]; [17],30 S
same,Plant response rating WWT,[13]; 1000 g ai/ha,90 S
same,Plant response rating RWC,[14]; [18],100 C
same,Plant response rating RWC,[14]; 1000 g ai/ha,90 S
